Source: patent publication US20060069132A1, “Azolecarboxamide herbicides” (priority 2004, published 2006)

Columns and labels:
Experiment in all cases: Test E pre-/postemergence herbicide test
Surinam grass = type: in vivo, Urochloa decumbens
In short: (§1)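 Herbicidal effect scored visually, 0–100 scale, versus controls. Treatments: preemergence on planted seed; postemergence on 2–18 cm seedlings. Greenhouse, 12 to 14 days.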

common ragweed = type: in vivo, Ambrosia elatior
In short: as §1

mustard = type: in vivo, Brassica nigra
In short: as §1

barnyardgrass = type: in vivo, Echinochloa crus-galli
In short: as §1

southern sandbur = type: in vivo, Cenchrus echinatus
In short: as §1

prickly sida = type: in vivo, Sida spinosa
In short: as §1

common purslane = type: in vivo, Portulaca oleracea
In short: as §1

common groundsel = type: in vivo, Senecio vulgaris
In short: as §1

annual bluegrass = type: in vivo, Poa annua
In short: as §1

downy bromegrass = type: in vivo, Bromus tectorum
In short: as §1

[1] = Postemergence, 500 g ai/ha, scale 0 to 100
[2] = Postemergence, 250 g ai/ha, scale 0 to 100
[3] = Preemergence, 125 g ai/ha, scale 0 to 100
[4] = Preemergence, 500 g ai/ha, scale 0 (no effect) to 100 (complete control)
[5] = postemergence, 125 g ai/ha, scale 0 to 100
[6] = postemergence, 62 g ai/ha, scale 0 to 100
[7] = Preemergence, 62 g ai/ha, scale 0 to 100
[8] = Preemergence, 250 g ai/ha, scale 0 (no effect) to 100 (complete control)

CCNC(=O)c1ccc(F)c(NC(=O)c2cn(C(C)(C)C)nc2CC)c1 [Compound 193]
Plant response rating, Surinam Grass (Surinam grass; [1]): 90 | Plant response rating, Surinam Grass (Surinam grass; [2]): 85 | Plant response rating, Surinam Grass (Surinam grass; [3]): 80 | Plant response rating, Surinam Grass (Surinam grass; [4]): 100 | Plant response rating, Surinam Grass (Surinam grass; [5]): 70 | Plant response rating, Surinam Grass (Surinam grass; [6]): 10 | Plant response rating, Ragweed (common ragweed; [1]): 75 | Plant response rating, Ragweed (common ragweed; [2]): 70 | Plant response rating, Ragweed (common ragweed; [7]): 50 | Plant response rating, Ragweed (common ragweed; [3]): 50 | Plant response rating, Ragweed (common ragweed; [8]): 80 | Plant response rating, Ragweed (common ragweed; [4]): 95 | Plant response rating, Ragweed (common ragweed; [5]): 30 | Plant response rating, Ragweed (common ragweed; [6]): 10 | Plant response rating, Black Mustard (mustard; [1]): 100 | Plant response rating, Black Mustard (mustard; [2]): 95 | Plant response rating, Black Mustard (mustard; [7]): 80 | Plant response rating, Black Mustard (mustard; [3]): 100 | Plant response rating, Black Mustard (mustard; [8]): 100 | Plant response rating, Black Mustard (mustard; [4]): 100 | Plant response rating, Black Mustard (mustard; [5]): 95 | Plant response rating, Black Mustard (mustard; [6]): 60 | Plant response rating, Barnyardgrass (barnyardgrass; [1]): 90 | Plant response rating, Barnyardgrass (barnyardgrass; [2]): 80 | Plant response rating, Barnyardgrass (barnyardgrass; [7]): 20 | Plant response rating, Barnyardgrass (barnyardgrass; [3]): 75 | Plant response rating, Barnyardgrass (barnyardgrass; [8]): 85 | Plant response rating, Barnyardgrass (barnyardgrass; [4]): 95 | Plant response rating, Barnyardgrass (barnyardgrass; [5]): 75 | Plant response rating, Barnyardgrass (barnyardgrass; [6]): 10 | Plant response rating, Sandbur (southern sandbur; [1]): 20 | Plant response rating, Sandbur (southern sandbur; [2]): 10 | Plant response rating, Sandbur (southern sandbur; [7]): 0 | Plant response rating, Sandbur (southern sandbur; [3]): 10 | Plant response rating, Sandbur (southern sandbur; [8]): 20 | Plant response rating, Sandbur (southern sandbur; [4]): 60 | Plant response rating, Sandbur (southern sandbur; [5]): 0 | Plant response rating, Sandbur (southern sandbur; [6]): 0 | Plant response rating, Prickly Sida (prickly sida; [1]): 95 | Plant response rating, Prickly Sida (prickly sida; [2]): 75 | Plant response rating, Prickly Sida (prickly sida; [7]): 20 | Plant response rating, Prickly Sida (prickly sida; [3]): 70 | Plant response rating, Prickly Sida (prickly sida; [8]): 70 | Plant response rating, Prickly Sida (prickly sida; [4]): 95 | Plant response rating, Prickly Sida (prickly sida; [5]): 60 | Plant response rating, Prickly Sida (prickly sida; [6]): 60 | Plant response rating, Purslane (common purslane; [1]): 85 | Plant response rating, Purslane (common purslane; [2]): 60 | Plant response rating, Purslane (common purslane; [3]): 60 | Plant response rating, Purslane (common purslane; [8]): 100 | Plant response rating, Purslane (common purslane; [4]): 100 | Plant response rating, Purslane (common purslane; [5]): 60 | Plant response rating, Purslane (common purslane; [6]): 20 | Plant response rating, Groundsel (common groundsel; [1]): 100 | Plant response rating, Groundsel (common groundsel; [2]): 70 | Plant response rating, Groundsel (common groundsel; [7]): 20 | Plant response rating, Groundsel (common groundsel; [3]): 100 | Plant response rating, Groundsel (common groundsel; [8]): 100 | Plant response rating, Groundsel (common groundsel; [4]): 100 | Plant response rating, Groundsel (common groundsel; [5]): 40 | Plant response rating, Groundsel (common groundsel; [6]): 20 | Plant response rating, Bluegrass (annual bluegrass; [1]): 85 | Plant response rating, Bluegrass (annual bluegrass; [2]): 70 | Plant response rating, Bluegrass (annual bluegrass; [7]): 80 | Plant response rating, Bluegrass (annual bluegrass; [3]): 100 | Plant response rating, Bluegrass (annual bluegrass; [8]): 100 | Plant response rating, Bluegrass (annual bluegrass; [4]): 100 | Plant response rating, Bluegrass (annual bluegrass; [5]): 50 | Plant response rating, Bluegrass (annual bluegrass; [6]): 20 | Plant response rating, Bromegrass, Downy (downy bromegrass; [1]): 80 | Plant response rating, Bromegrass, Downy (downy bromegrass; [2]): 70 | Plant response rating, Bromegrass, Downy (downy bromegrass; [7]): 10 | Plant response rating, Bromegrass, Downy (downy bromegrass; [3]): 30 | Plant response rating, Bromegrass, Downy (downy bromegrass; [8]): 80 | Plant response rating, Bromegrass, Downy (downy bromegrass; [4]): 90 | Plant response rating, Bromegrass, Downy (downy bromegrass; [5]): 30 | Plant response rating, Bromegrass, Downy (downy bromegrass; [6]): 20

CCc1nn(C(C)(C)C)cc1C(=O)Nc1cc(C(=O)N(C)C)ccc1F [Compound 222, N-[5-[(dimethylamino)carbonyl]-2-fluorophenyl]-1-(1,1-dimethylethyl)-3-ethyl-1H-pyrazole-4-carboxamide]
Plant response rating, Surinam Grass (Surinam grass; [2]): 80 | Plant response rating, Surinam Grass (Surinam grass; [3]): 90 | Plant response rating, Surinam Grass (Surinam grass; [4]): 100 | Plant response rating, Surinam Grass (Surinam grass; [5]): 80 | Plant response rating, Surinam Grass (Surinam grass; [6]): 50 | Plant response rating, Ragweed (common ragweed; [2]): 70 | Plant response rating, Ragweed (common ragweed; [7]): 30 | Plant response rating, Ragweed (common ragweed; [3]): 85 | Plant response rating, Ragweed (common ragweed; [8]): 95 | Plant response rating, Ragweed (common ragweed; [4]): 95 | Plant response rating, Ragweed (common ragweed; [5]): 60 | Plant response rating, Ragweed (common ragweed; [6]): 20 | Plant response rating, Black Mustard (mustard; [1]): 95 | Plant response rating, Black Mustard (mustard; [2]): 95 | Plant response rating, Black Mustard (mustard; [7]): 90 | Plant response rating, Black Mustard (mustard; [3]): 100 | Plant response rating, Black Mustard (mustard; [8]): 100 | Plant response rating, Black Mustard (mustard; [4]): 100 | Plant response rating, Black Mustard (mustard; [5]): 90 | Plant response rating, Black Mustard (mustard; [6]): 90 | Plant response rating, Barnyardgrass (barnyardgrass; [2]): 70 | Plant response rating, Barnyardgrass (barnyardgrass; [7]): 50 | Plant response rating, Barnyardgrass (barnyardgrass; [3]): 90 | Plant response rating, Barnyardgrass (barnyardgrass; [8]): 100 | Plant response rating, Barnyardgrass (barnyardgrass; [4]): 100 | Plant response rating, Barnyardgrass (barnyardgrass; [5]): 50 | Plant response rating, Barnyardgrass (barnyardgrass; [6]): 50 | Plant response rating, Sandbur (southern sandbur; [1]): 80 | Plant response rating, Sandbur (southern sandbur; [2]): 50 | Plant response rating, Sandbur (southern sandbur; [7]): 0 | Plant response rating, Sandbur (southern sandbur; [3]): 40 | Plant response rating, Sandbur (southern sandbur; [8]): 70 | Plant response rating, Sandbur (southern sandbur; [4]): 95 | Plant response rating, Sandbur (southern sandbur; [5]): 10 | Plant response rating, Sandbur (southern sandbur; [6]): 10 | Plant response rating, Prickly Sida (prickly sida; [1]): 100 | Plant response rating, Prickly Sida (prickly sida; [2]): 100 | Plant response rating, Prickly Sida (prickly sida; [7]): 20 | Plant response rating, Prickly Sida (prickly sida; [3]): 70 | Plant response rating, Prickly Sida (prickly sida; [8]): 100 | Plant response rating, Prickly Sida (prickly sida; [4]): 100 | Plant response rating, Prickly Sida (prickly sida; [5]): 100 | Plant response rating, Prickly Sida (prickly sida; [6]): 90 | Plant response rating, Purslane (common purslane; [2]): 60 | Plant response rating, Purslane (common purslane; [7]): 70 | Plant response rating, Purslane (common purslane; [3]): 100 | Plant response rating, Purslane (common purslane; [8]): 100 | Plant response rating, Purslane (common purslane; [4]): 100 | Plant response rating, Purslane (common purslane; [5]): 30 | Plant response rating, Purslane (common purslane; [6]): 10 | Plant response rating, Groundsel (common groundsel; [1]): 100 | Plant response rating, Groundsel (common groundsel; [2]): 95 | Plant response rating, Groundsel (common groundsel; [7]): 30 | Plant response rating, Groundsel (common groundsel; [3]): 100 | Plant response rating, Groundsel (common groundsel; [8]): 100 | Plant response rating, Groundsel (common groundsel; [4]): 100 | Plant response rating, Groundsel (common groundsel; [5]): 70 | Plant response rating, Groundsel (common groundsel; [6]): 40 | Plant response rating, Bluegrass (annual bluegrass; [1]): 90 | Plant response rating, Bluegrass (annual bluegrass; [2]): 90 | Plant response rating, Bluegrass (annual bluegrass; [7]): 90 | Plant response rating, Bluegrass (annual bluegrass; [3]): 100 | Plant response rating, Bluegrass (annual bluegrass; [8]): 100 | Plant response rating, Bluegrass (annual bluegrass; [4]): 100 | Plant response rating, Bluegrass (annual bluegrass; [5]): 80 | Plant response rating, Bluegrass (annual bluegrass; [6]): 60 | Plant response rating, Bromegrass, Downy (downy bromegrass; [2]): 80 | Plant response rating, Bromegrass, Downy (downy bromegrass; [7]): 30 | Plant response rating, Bromegrass, Downy (downy bromegrass; [3]): 90 | Plant response rating, Bromegrass, Downy (downy bromegrass; [8]): 90 | Plant response rating, Bromegrass, Downy (downy bromegrass; [4]): 100 | Plant response rating, Bromegrass, Downy (downy bromegrass; [5]): 50 | Plant response rating, Bromegrass, Downy (downy bromegrass; [6]): 10

CCc1nn(C(C)C)nc1C(=O)Nc1cccc(C(=O)N2CCCCC2)c1 [Compound 385]
Plant response rating, Surinam Grass (Surinam grass; [3]): 20 | Plant response rating, Ragweed (common ragweed; [7]): 0 | Plant response rating, Ragweed (common ragweed; [3]): 0 | Plant response rating, Ragweed (common ragweed; [8]): 0 | Plant response rating, Black Mustard (mustard; [7]): 0 | Plant response rating, Black Mustard (mustard; [8]): 30 | Plant response rating, Barnyardgrass (barnyardgrass; [7]): 20 | Plant response rating, Barnyardgrass (barnyardgrass; [3]): 50 | Plant response rating, Barnyardgrass (barnyardgrass; [8]): 70 | Plant response rating, Sandbur (southern sandbur; [7]): 0 | Plant response rating, Sandbur (southern sandbur; [3]): 10 | Plant response rating, Sandbur (southern sandbur; [8]): 40 | Plant response rating, Prickly Sida (prickly sida; [7]): 10 | Plant response rating, Prickly Sida (prickly sida; [3]): 100 | Plant response rating, Prickly Sida (prickly sida; [8]): 100 | Plant response rating, Purslane (common purslane; [7]): 100 | Plant response rating, Purslane (common purslane; [3]): 100 | Plant response rating, Purslane (common purslane; [8]): 100 | Plant response rating, Groundsel (common groundsel; [7]): 0 | Plant response rating, Groundsel (common groundsel; [3]): 0 | Plant response rating, Groundsel (common groundsel; [8]): 60 | Plant response rating, Bluegrass (annual bluegrass; [7]): 0 | Plant response rating, Bluegrass (annual bluegrass; [3]): 10 | Plant response rating, Bluegrass (annual bluegrass; [8]): 30 | Plant response rating, Bromegrass, Downy (downy bromegrass; [7]): 10 | Plant response rating, Bromegrass, Downy (downy bromegrass; [3]): 10 | Plant response rating, Bromegrass, Downy (downy bromegrass; [8]): 20

CCc1nn(C(C)C)nc1C(=O)Nc1cccc(C(=O)N(C)CC)c1 [Compound 386]
Plant response rating, Surinam Grass (Surinam grass; [3]): 80 | Plant response rating, Ragweed (common ragweed; [3]): 20 | Plant response rating, Ragweed (common ragweed; [8]): 60 | Plant response rating, Black Mustard (mustard; [8]): 70 | Plant response rating, Barnyardgrass (barnyardgrass; [3]): 80 | Plant response rating, Barnyardgrass (barnyardgrass; [8]): 100 | Plant response rating, Sandbur (southern sandbur; [3]): 40 | Plant response rating, Sandbur (southern sandbur; [8]): 40 | Plant response rating, Prickly Sida (prickly sida; [3]): 100 | Plant response rating, Prickly Sida (prickly sida; [8]): 100 | Plant response rating, Purslane (common purslane; [3]): 100 | Plant response rating, Purslane (common purslane; [8]): 100 | Plant response rating, Groundsel (common groundsel; [3]): 30 | Plant response rating, Groundsel (common groundsel; [8]): 50 | Plant response rating, Bluegrass (annual bluegrass; [3]): 60 | Plant response rating, Bluegrass (annual bluegrass; [8]): 95 | Plant response rating, Bromegrass, Downy (downy bromegrass; [3]): 10 | Plant response rating, Bromegrass, Downy (downy bromegrass; [8]): 40
